Assay results published in patent US20090306228A1, “ACTIVE AGENT DELIVERY SYSTEMS AND METHODS FOR PROTECTING AND ADMINISTERING ACTIVE AGENTS” (priority 2000, published 2009).
“And” between values parts separate entries of the source, which are not always exact repeats. Equal values may be shown once.

Experiments:
pancreatin = conditions: pig, 24 h, pH 7.5
pepsin = pepsin (Sus scrofa, UniProt P00791); conditions: pig, 4 h, pH 1.2
[1] = test system: protease (type XIV, pronase); conditions: Streptomyces griseus, 24 h, pH 8.4
[2] = after oral administration; cited from earlier work
[3] = female, Sprague Dawley, rat, in vivo, po
in vivo = conditions: male, Sprague-Dawley, rat, plasma, po
[4] = In vivo performance of polyglutamic acid-AZT conjugate lot TM-113, plasma AZT by ELISA; design: species or system Sprague-Dawley rats; conditions: for Plasma concentration of individual rats: Rat #1-#5
Experimental: […]. Polyglutarnic acid-AZT conjugate was given to five rats at a dose containing 15 mg/kg of AZT.

[5] = In vivo performance of polyserine-naltrexone conjugate lot BB-272, serum naltrexone by ELISA; conditions: for Serum concentration of individual rats: 3.6 mg naltrexone (12 mg conjugate BB-272), Rat #1-#4
Experimental: No excipients were added to the capsules.

[6] = In vivo performance of polyserine-naltrexone conjugate lot BB-301, serum naltrexone by ELISA; conditions: oral capsule; for Serum concentration of individual rats: 3.6 mg naltrexone (12.9 mg conjugate BB-301), Rat #1-#5
[7] = male, Sprague-Dawley, rat, plasma, po, 15 mg/kg
[8] = male, Sprague Dawley, rat, in vivo, po, 3.6 mg

pepsin, sequence (P00791 60-385): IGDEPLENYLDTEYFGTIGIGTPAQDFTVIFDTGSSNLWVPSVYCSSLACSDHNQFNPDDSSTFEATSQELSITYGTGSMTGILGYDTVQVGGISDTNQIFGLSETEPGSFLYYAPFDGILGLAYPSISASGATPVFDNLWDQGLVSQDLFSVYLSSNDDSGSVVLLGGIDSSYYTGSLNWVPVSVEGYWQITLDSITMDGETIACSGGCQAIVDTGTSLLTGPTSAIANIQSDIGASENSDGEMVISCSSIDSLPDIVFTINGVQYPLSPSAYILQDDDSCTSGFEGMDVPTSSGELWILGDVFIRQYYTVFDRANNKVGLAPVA

Nc1ccc(O)c(C(=O)O)c1 [Mesalamine, 5-amino-2-hydroxybenzoic acid]
Intestine (simulator, release of active agent from peptide conjugate) (pancreatin): 10%
Stomach (simulator, release of active agent from peptide conjugate) (pepsin): 11%
Pronase (release of active agent from peptide conjugate) [1]: 46%

CC1OC(OC2C(O)CC(OC3C(O)CC(O[C@H]4CCC5(C)C(CCC6[C@@H]5CC(O)C5(C)[C@@H](C7=CC(=O)OC7)CCC65O)C4)OC3C)OC2C)CC(O)C1O (stereo partly drawn) [Digoxin, digoxin]
time until an effect is evident [2]: 1 to 2 h

NS(=O)(=O)c1cc(C(=O)O)c(NCc2ccco2)cc1Cl [Furosemide]
9 hour serum level as percent of its 3 hour level [3]: 59.8%

Cc1ncc([N+](=O)[O-])n1CCO [Metronidazole]
Intestine (simulator, release of active agent from peptide conjugate) (pancreatin): 64.30%
Stomach (simulator, release of active agent from peptide conjugate) (pepsin): 20.20%
Pronase (release of active agent from peptide conjugate) [1]: 28.90%

Cc1ccc(C)c(OCCCC(C)(C)C(=O)O)c1 [Gemfibrozil, 5-(2,5-dimethylphenoxy)-2,2-dimethylpentanoic acid]
Intestine (simulator, release of active agent from peptide conjugate) (pancreatin): 3.60%
Stomach (simulator, release of active agent from peptide conjugate) (pepsin): 0%
Pronase (release of active agent from peptide conjugate) [1]: 2%

CCN(CC)CCNC(=O)c1cc(Cl)c(N)cc1OC [Metoclopramide]
Intestine (simulator, release of active agent from peptide conjugate) (pancreatin): 95.20%
Stomach (simulator, release of active agent from peptide conjugate) (pepsin): 0%
Pronase (release of active agent from peptide conjugate) [1]: 6.50%

Cc1cn([C@H]2C[C@H](N=[N+]=[N-])[C@@H](CO)O2)c(=O)[nH]c1=O [AZT, 3′-azido-3′-deoxythymidine]
Tmax (in vivo): 30 min
AUC(0-t) [4, 7]: 4040 ng·h/mL
Cmax [4, 7]: 2390 ng/mL
Tmax [4, 7]: 30 min
concentration at 0 h ([4]; male, Sprague-Dawley, rat, plasma, po, 15 mg/kg, 15 mg/kg of AZT, lot TM-113, 0 hours): 7 ng/mL
concentration at 0.5 h ([4]; male, Sprague-Dawley, rat, plasma, po, 15 mg/kg, 15 mg/kg of AZT, lot TM-113, 0.5 hours): 2390 ng/mL
concentration at 3 h ([4]; male, Sprague-Dawley, rat, plasma, po, 15 mg/kg, 15 mg/kg of AZT, lot TM-113, 3 hours): 223 ng/mL
concentration at 5 h ([4]; male, Sprague-Dawley, rat, plasma, po, 15 mg/kg, 15 mg/kg of AZT, lot TM-113, 5 hours): 49 ng/mL
concentration at 8 h ([4]; male, Sprague-Dawley, rat, plasma, po, 15 mg/kg, 15 mg/kg of AZT, lot TM-113, 8 hours): 11 ng/mL
concentration at 12 h ([4]; male, Sprague-Dawley, rat, plasma, po, 15 mg/kg, 15 mg/kg of AZT, lot TM-113, 12 hours): 36 ng/mL
concentration at 24 h ([4]; male, Sprague-Dawley, rat, plasma, po, 15 mg/kg, 15 mg/kg of AZT, lot TM-113, 24 hours): 8 ng/mL
time at which AZT plasma levels spiked ([4]; oral, 15 mg/kg of AZT): 0.5 h
time for which plasma levels of AZT remained elevated ([4]; oral, 15 mg/kg of AZT, lot TM-113): < 3 h
Plasma concentration of individual rats ([4]; oral, 15 mg/kg of AZT, lot TM-113, 0 hours, 15 mg/kg): 6 ng/mL and 4 ng/mL and 2 ng/mL and 9 ng/mL and 14 ng/mL
Plasma concentration of individual rats ([4]; oral, 15 mg/kg of AZT, lot TM-113, 0.5 hours, 15 mg/kg): 4520 ng/mL and 2108 ng/mL and 2657 ng/mL and 1978 ng/mL and 690 ng/mL
Plasma concentration of individual rats ([4]; oral, 15 mg/kg of AZT, lot TM-113, 3 hours, 15 mg/kg): 598 ng/mL and 132 ng/mL and 200 ng/mL and 94 ng/mL and 93 ng/mL
Plasma concentration of individual rats ([4]; oral, 15 mg/kg of AZT, lot TM-113, 5 hours, 15 mg/kg): 79 ng/mL and 25 ng/mL and 78 ng/mL and 26 ng/mL and 39 ng/mL
Plasma concentration of individual rats ([4]; oral, 15 mg/kg of AZT, lot TM-113, 8 hours, 15 mg/kg): 16 ng/mL and 18 ng/mL and 12 ng/mL and 4 ng/mL and 5 ng/mL
Plasma concentration of individual rats ([4]; oral, 15 mg/kg of AZT, lot TM-113, 12 hours, 15 mg/kg): 101 ng/mL and 38 ng/mL and 28 ng/mL and 2 ng/mL and 6 ng/mL
Plasma concentration of individual rats ([4]; oral, 15 mg/kg of AZT, lot TM-113, 24 hours, 15 mg/kg): 13 ng/mL and 12 ng/mL and 4 ng/mL and 8 ng/mL and 3 ng/mL

O=C1CC[C@@]2(O)[C@H]3Cc4ccc(O)c5c4[C@@]2(CCN3CC2CC2)[C@H]1O5 [Naltrexone]
concentration at 2 h [5, 8]: 46 ng/mL
concentration at 4 h [5, 8]: 11 ng/mL
concentration at 6 h [5, 8]: 9 ng/mL
concentration at 9 h [5, 8]: 3 ng/mL
Serum concentration of individual rats ([5]; oral capsule, 2 hours): 33 ng/mL and 91 ng/mL and 37 ng/mL and 22 ng/mL
Serum concentration of individual rats ([5]; oral capsule, 4 hours): 6 ng/mL and 25 ng/mL and 12 ng/mL and 3 ng/mL
Serum concentration of individual rats ([5]; oral capsule, 6 hours): 13 ng/mL and 10 ng/mL and 8 ng/mL and 6 ng/mL
Serum concentration of individual rats ([5]; oral capsule, 9 hours): 3 ng/mL and 6 ng/mL and 2 ng/mL and 1 ng/mL
Serum concentration of individual rats ([5]; oral capsule, 12 hours): 2 ng/mL (2×) and 1 ng/mL
Mean serum concentration +/- SD ([5]; oral capsule, 3.6 mg naltrexone, lot BB-272, 12 hours): 1 ± 1 ng/mL
time at which serum levels spiked ([5]; oral capsule, lot BB-272, 2 hours was the first measurement): 2 h
Serum concentration of individual rats ([6]; 0.5 hours): 39 ng/mL and 141 ng/mL and 128 ng/mL and 126 ng/mL and 142 ng/mL
Serum concentration of individual rats ([6]; 3 hours): 91 ng/mL and 62 ng/mL and 44 ng/mL and 30 ng/mL and 46 ng/mL
Serum concentration of individual rats ([6]; 5 hours): 45 ng/mL and 193 ng/mL and 16 ng/mL and 8 ng/mL and 19 ng/mL
Serum concentration of individual rats ([6]; 8 hours): 19 ng/mL and 6 ng/mL and 2 ng/mL and 5 ng/mL and 4 ng/mL
Serum concentration of individual rats ([6]; 12 hours): 3 ng/mL (2×) and 1 ng/mL and 2 ng/mL (2×)
Serum concentration of individual rats ([6]; 15 hours): 4 ng/mL and 1 ng/mL (2×) and 2 ng/mL (2×)
Serum concentration of individual rats ([6]; 24 hours): 2 ng/mL (2×) and 1 ng/mL (2×) and 3 ng/mL
time at which naltrexone serum levels spiked ([6]; equal dose, lot BB-301): 0.5 h
time for which serum levels of naltrexone remained elevated ([6]; equal dose, lot BB-301): < 8 h
